Measured values reported in US20070197590A1, “SUBSTITUTED DIPIPERIDINE CCR2 ANTAGONISTS” (priority 2006, published 2007).
Read-outs that look alike come from different tables or passages of the source.

Tests used:
[1] = system: MCP-1 induced calcium ion influx in THP-1 cells; test: MCP-1 Induced Calcium Mobilization in THP-1 Cells; format: cell-based; details: for IC50: 0.2 μM MCP-1, FLIPR, read-out: Inhibition of MCP-1 Induced Calcium Ion Influx IC50
Procedure, shortened: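 Fluo-3-loaded (5 μM, 45 min) THP-1 cells preincubated 15 min with compound. Calcium change after 0.2 μM MCP-1 addition read by FLIPR relative to vehicle; IC50 values derived.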

CCR2 = target: T1, CCR2 (Homo sapiens, UniProt P41597); test: MCP-1 Receptor Binding Assay in THP-1 Cells; details: THP-1 cells, 0.5 nM 125I labeled MCP-1, 2 hours at 30° C.; read-out: Inhibition of MCP-1 Binding IC50
T1 construct: host or cells: THP-1 cells
T1 sequence (P41597 1-360 isoform P41597-2): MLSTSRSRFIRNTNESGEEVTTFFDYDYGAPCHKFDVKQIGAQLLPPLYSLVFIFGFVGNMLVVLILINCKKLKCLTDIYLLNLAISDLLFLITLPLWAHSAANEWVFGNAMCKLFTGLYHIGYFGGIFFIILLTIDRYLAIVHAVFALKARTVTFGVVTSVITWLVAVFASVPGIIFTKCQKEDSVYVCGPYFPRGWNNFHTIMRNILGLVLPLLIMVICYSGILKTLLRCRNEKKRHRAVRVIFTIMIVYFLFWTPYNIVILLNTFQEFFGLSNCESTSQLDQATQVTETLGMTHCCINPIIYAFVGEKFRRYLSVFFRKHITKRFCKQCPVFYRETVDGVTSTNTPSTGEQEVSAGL
Procedure, shortened: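 Whole THP-1 cells incubated 2 h at 30° C with 0.5 nM 125I-MCP-1 and varying compound concentrations; bound radioactivity harvested on filters and counted by scintillation. Nonspecific binding with 1 μM cold MCP-1; IC50 for inhibition of binding versus vehicle.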

[2] = system: MCP-1 induced chemotaxis of THP-1 cells; test: MCP-1 Induced Chemotaxis in THP-1 Cells; format: cell-based; details: Homo sapiens, MCP-1 0.01 μg/mL, 3 hours at 37° C., read-out: Inhibition of MCP-1 Induced Chemotaxis IC50
Protocol: MCP-1 induced chemotaxis was run in a 24-well chemotaxis chamber. MCP-1 (0.01 μg/mL) was added to the lower chamber and 100 μL of THP-1 cells (1×10^7 cell/mL) was added to the top chamber. Varying concentrations of test compound were added to the top and bottom chambers. Cells were allowed to chemotax for 3 hours at 37° C. and 5% CO2. An aliquot of the cells that had migrated to the bottom chamber was taken and counted then compared to vehicle.
Table 3 lists IC50 values for inhibition of MCP-1 induced chemotaxis.

[3] = Homo sapiens, THP-1, THP-1 cells

| Structure (SMILES) | IC50 [1, 3] | IC50 (CCR2) | IC50 [2] | IC50 ([1]; THP-1 cells) | inhibition at 25 µM ([1]; Homo sapiens, THP-1, test concentration of 25 μM, given where an IC50 value was not obtained, read-out: Inhibition of MCP-1 Induced Calcium Ion Influx, percent inhibition) |
| --- | --- | --- | --- | --- | --- |
| O=C(O)C(CC1CCN(C(=O)C=Cc2ccc(Cl)c(Cl)c2)CC1)N1CCC(c2c[nH]c3ccccc23)CC1 (stereo not drawn) [Compound 60, 3-{1-[3-(3,4-dichloro-phenyl)-acryloyl]-piperidin-4-yl}-2-[4-(1H-indol-3-yl)-piperidin-1-yl]-propionic acid] | 380 nM | 310 nM | 290 nM | – | – |
| O=C(O)C(CC1CCN(C(=O)C=Cc2cc(F)cc(F)c2)CC1)N1CCC(c2c[nH]c3ccccc23)CC1 (stereo not drawn) [Compound 61, 3-{1-[3-(3,5-difluoro-phenyl)-acryloyl]-piperidin-4-yl}-2-[4-(1H-indol-3-yl)-piperidin-1-yl]-propionic acid] | 2800 nM | 830 nM | 240 nM | – | – |
| COc1ccc(C2CCN(CC(N)C3CCN(C(=O)/C=C/c4cc(F)c(F)c(F)c4)CC3)CC2)cc1 (stereo not drawn) [Compound 65] | 40 nM | 80 nM | 250 nM | – | – |
| COC(=O)NC(CN1CCC(c2ccc(OC)cc2)CC1)C1CCN(C(=O)C=Cc2cc(F)c(F)c(F)c2)CC1 (stereo not drawn) [Compound 67, (2-[4-(4-methoxy-phenyl)-piperidin-1-yl]-1-{1-[3-(3,4,5-trifluoro-phenyl)-acryloyl]-piperidin-4-yl}-ethyl)-carbamic acid methyl ester] | 300 nM | 240 nM | 700 nM | – | – |
| O=C(/C=C/c1cc(F)c(F)c(F)c1)N1CCC(O)(C(O)CN2CCC(c3c[nH]c4ccccc34)CC2)CC1 (stereo not drawn) [Compound 70] | 80 nM | 180 nM | 10 nM | – | – |
| O=C(/C=C/c1cc(Cl)cc(Cl)c1)N1CCC(O)(C(O)CN2CCC(c3c[nH]c4ccccc34)CC2)CC1 (stereo not drawn) [Compound 73] | 1 nM | 130 nM | 30 nM | – | – |
| O=C(/C=C/c1cc(F)cc(Cl)c1)N1CCC(O)(C(O)CN2CCC(c3c[nH]c4ccccc34)CC2)CC1 (stereo not drawn) [Compound 74] | 2 nM | 40 nM | 80 nM | – | – |
| O=C(/C=C/c1ccc(Cl)c(Cl)c1)N1CCC(O)(C(O)CN2CCC(c3c[nH]c4ccccc34)CC2)CC1 (stereo not drawn) [Compound 75] | 5 nM | 350 nM | 30 nM | – | – |
| O=C(/C=C/c1ccc(F)c(F)c1)N1CCC(O)(C(O)CN2CCC(c3c[nH]c4ccccc34)CC2)CC1 (stereo not drawn) [Compound 78] | 40 nM | 370 nM | 210 nM | – | – |
| O=C(/C=C/c1ccc(F)c(Br)c1)N1CCC(O)(C(O)CN2CCC(c3c[nH]c4ccccc34)CC2)CC1 (stereo not drawn) [Compound 80] | 6 nM | 200 nM | 90 nM | – | – |
| O=C(/C=C/c1ccc(Cl)c(Cl)c1)N1CCC(C(O)CN2CCC(c3nc4ccccc4[nH]3)CC2)CC1 (stereo not drawn) [Compound 85] | 6 nM | 150 nM | 40 nM | – | – |
| O=C(/C=C/c1cc(F)c(F)c(F)c1)N1CCC(C(O)CN2CCC(c3nc4ccccc4[nH]3)CC2)CC1 (stereo not drawn) [Compound 86] | 70 nM | 80 nM | 50 nM | – | – |
| COc1ccc(C2CCN(CC(O)C3(O)CCN(C(=O)/C=C/c4cc(F)c(F)c(F)c4)CC3)CC2)cc1 (stereo not drawn) [Compound 88] | 980 nM | 170 nM | 30 nM | – | – |
| COc1ccc(C2CCN(CC(O)C3(O)CCN(C(=O)/C=C/c4ccc(F)c(F)c4)CC3)CC2)cc1 (stereo not drawn) [Compound 93] | 9200 nM | 310 nM | 120 nM | – | – |
| COc1ccc(C2CCN(CC(O)C3(O)CCN(C(=O)/C=C/c4cc(F)cc(F)c4)CC3)CC2)cc1 (stereo not drawn) [Compound 94] | 900 nM | 350 nM | 100 nM | – | – |
| COc1ccc(C2CCN(CC(O)C3CCN(C(=S)Nc4cc(F)cc(F)c4)CC3)CC2)cc1 (stereo not drawn) [Compound 107, 4-{1-hydroxy-2-[4-(4-methoxy-phenyl)-piperidin-1-yl]-ethyl}-piperidine-1-carbothioic acid (3,5-difluoro-phenyl)-amide] | 4300 nM | 290 nM | 40 nM | – | – |

| Structure (SMILES) | IC50 [1, 3] | IC50 (CCR2) | IC50 [2] | IC50 ([1]; THP-1 cells) | inhibition at 25 µM ([1]; Homo sapiens, THP-1, test concentration of 25 μM, given where an IC50 value was not obtained, read-out: Inhibition of MCP-1 Induced Calcium Ion Influx, percent inhibition) |
| --- | --- | --- | --- | --- | --- |
| COc1ccc(C2CCN(CC(O)C3CCN(C(=S)Nc4ccc(Br)c(F)c4)CC3)CC2)cc1 (stereo not drawn) [Compound 110, 4-{1-hydroxy-2-[4-(4-methoxy-phenyl)-piperidin-1-yl]-ethyl}-piperidine-1-carbothioic acid (4-bromo-3-fluoro-phenyl)-amide] | – | 90 nM | 70 nM | 4300 nM | – |
| O=C(/C=C/c1cc(F)c(F)c(F)c1)N1CCC(O)(C(O)CN2CCC(c3ccc(F)cc3)CC2)CC1 (stereo not drawn) [Compound 128] | 1900 nM | 110 nM | 300 nM | – | – |
| O=C(/C=C/c1cc(F)cc(F)c1)N1CCC(O)(C(O)CN2CCC(c3ccc(F)cc3)CC2)CC1 (stereo not drawn) [Compound 130] | 2400 nM | 100 nM | 190 nM | – | – |
| O=C(/C=C/c1cc(F)c(F)c(F)c1)N1CCC(O)(C(O)CN2CCC(c3ccc(C(F)(F)F)cc3)CC2)CC1 (stereo not drawn) [Compound 136] | 210 nM | 140 nM | 150 nM | – | – |
| O=C(/C=C/c1ccc(F)c(F)c1)N1CCC(O)(C(O)CN2CCC(c3ccc(C(F)(F)F)cc3)CC2)CC1 (stereo not drawn) [Compound 137] | 1300 nM | 255 nM | 170 nM | – | – |
| O=C(/C=C/c1cc(F)cc(F)c1)N1CCC(O)(C(O)CN2CCC(c3ccc(C(F)(F)F)cc3)CC2)CC1 (stereo not drawn) [Compound 138] | 810 nM | 210 nM | 60 nM | – | – |
| O=C(Nc1cc(F)cc(F)c1)N1CCC(O)(C(O)CN2CCC(c3ccc(C(F)(F)F)cc3)CC2)CC1 (stereo not drawn) [Compound 142, 4-hydroxy-4-{1-hydroxy-2-[4-(4-trifluoromethyl-phenyl)-piperidin-1 yl]-ethyl}-piperidine-1-carboxylic acid (3,5-difluoro-phenyl)-amide] | – | 260 nM | 260 nM | – | 68% |
| O=C(/C=C/c1cc(Cl)cc(Cl)c1)N1CCC(O)(C(O)CN2CCC(c3c[nH]c4ccc(N5CCOCC5)cc34)CC2)CC1 (stereo not drawn) [Compound 151] | 510 nM | 40 nM | 160 nM | – | – |
| O=C(/C=C/c1cc(F)c(F)c(F)c1)N1CCC(O)(C(O)CN2CCC(c3c[nH]c4ccc(F)cc34)CC2)CC1 (stereo not drawn) [Compound 155] | 660 nM | 100 nM | 180 nM | – | – |
| O=C(/C=C/c1ccc(F)c(F)c1)N1CCC(O)(C(O)CN2CCC(c3c[nH]c4ccc(F)cc34)CC2)CC1 (stereo not drawn) [Compound 156] | 4000 nM | 120 nM | 360 nM | – | – |
| O=C(/C=C/c1cc(F)cc(F)c1)N1CCC(O)(C(O)CN2CCC(c3c[nH]c4ccc(F)cc34)CC2)CC1 (stereo not drawn) [Compound 157] | 1900 nM | 150 nM | 120 nM | – | – |
| O=C(/C=C/c1cc(F)c(F)c(F)c1)N1CCC(O)(C(O)CN2CCC(c3ccc(Cl)cc3)CC2)CC1 (stereo not drawn) [Compound 163] | 120 nM | 0.2 nM | 5 nM | – | – |
| O=C(/C=C/c1cc(F)cc(F)c1)N1CCC(O)(C(O)CN2CCC(c3ccc(Cl)cc3)CC2)CC1 (stereo not drawn) [Compound 164] | 60 nM | 50 nM | 2 nM | – | – |
| O=C(Nc1ccc(Cl)c(Cl)c1)N1CCC(O)(C(O)CN2CCC(c3ccc(Cl)cc3)CC2)CC1 (stereo not drawn) [Compound 165, 4-{2-[4-(4-chloro-phenyl)-piperidin-1-yl]-1-hydroxy-ethyl}-4-hydroxy-piperidine-1-carboxylic acid (3,4-dichloro-phenyl)-amide] | 900 nM | 50 nM | 120 nM | – | – |
| O=C(Nc1ccc(Cl)c(Cl)c1)N1CCC(O)(C(O)CN2CCC(c3c[nH]c4ccc(F)cc34)CC2)CC1 (stereo not drawn) [Compound 167, 4-{2-[4-(5-fluoro-1H-indol-3-yl)-piperidin-1-yl]-1-hydroxy-ethyl}-4-hydroxy-piperidine-1-carboxylic acid (3,4-dichloro-phenyl)-amide] | 940 nM | 460 nM | 4 nM | – | – |
| O=C(Nc1ccc(Cl)c(Cl)c1)N1CCC(O)(C(O)CN2CCC(c3c[nH]c4ccc(N5CCOCC5)cc34)CC2)CC1 (stereo not drawn) [Compound 181, 4-hydroxy-4-{1-hydroxy-2-[4-(5-morpholin-4-yl-1H-indol-3-yl)-piperidin-1-yl]-ethyl}-piperidine-1-carboxylic acid (3,4-dichloro-phenyl)-amide] | 2100 nM | 270 nM | 180 nM | – | – |
